Where “and” joins values, the source holds several entries; their conditions need not be identical. Equal values may be shown once.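 1) Cells in 96-well plates. 2) Compound, 48 h, 5 concentrations. 3) Linear interpolation between surrounding doses. 4) Unreached endpoint = highest concentration. Abbreviation: GI50, concentration required for 50% inhibition of growth. At the TGI there is no net growth.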
What was measured:
Assay in all cases: DTP human tumour cell line panel, 48 h
[1] = test system: COLO 205 colon
[2] = test system: CAKI-1 renal
[3] = test system: NCI/ADR-RES ovarian
[4] = test system: HL-60(TB) leukemia
[5] = test system: SK-MEL-2 melanoma
[6] = test system: SK-MEL-28 melanoma
[7] = test system: MOLT-4 leukemia
[8] = test system: PC-3 prostate
[9] = test system: HOP-92 NSCLC
[10] = test system: M14 melanoma

In the case of `CCC1(OC(=O)CN)C(=O)OCc2c1cc1n(c2=O)Cc2cc3cc4c(cc3nc2-1)OCO4` (stereo not drawn), the GI50 [1] is reported as 0.362 µM and 0.15 µM, the TGI [1] is reported as 2.56 µM and 1.78 µM and the GI50 [2] is reported as less than 0.01 µM. For the same compound, the TGI [2] was 0.171 µM, the GI50 [3] was less than 0.01 µM and the TGI [3] was 0.231 µM and 0.0889 µM. The GI50 [4] was less than 0.01 µM, the GI50 [5] was 0.135 µM and 0.221 µM and the TGI [5] was 3.15 µM and 1.07 µM. The GI50 [6] was 0.195 µM and 0.294 µM, the TGI [6] was 13.3 µM and 11.8 µM and the GI50 [7] was less than 0.01 µM. For the same compound, the TGI [7] was 0.0113 µM.
Compound `C[PH+](c1nc2ccccc2nc1[PH+](C)C(C)(C)C)C(C)(C)C.C[PH+](c1nc2ccccc2nc1[PH+](C)C(C)(C)C)C(C)(C)C.[Au+].[Cl-]` (stereo not drawn) has a GI50 [1] of 0.0198 µM, a TGI [1] of 0.0442 µM and a GI50 [8] of 0.0286 µM. It also gave a TGI [8] of 0.144 µM, a GI50 [2] of 0.222 µM and a TGI [2] of 0.537 µM. The GI50 [4] was 0.07 µM, the TGI [4] was 1.02 µM and the GI50 [9] was 0.0225 µM. It also gave a TGI [9] of 0.0681 µM, a GI50 [10] of 0.0386 µM and a TGI [10] of 0.31 µM. The GI50 [5] was 0.0318 µM, the TGI [5] was 0.0986 µM and the GI50 [6] was 0.0538 µM. It also gave a TGI [6] of 1.5 µM.
`O=C(O)CCSC1=NCCN1` showed a TGI [1] greater than 100 µM, a TGI [8] greater than 100 µM and a TGI [2] greater than 100 µM. It also gave a TGI [3] greater than 100 µM, a TGI [4] greater than 100 µM and a TGI [9] greater than 100 µM. It also gave a TGI [10] greater than 100 µM, a TGI [5] greater than 100 µM and a TGI [6] greater than 100 µM.
For `CCOC(=O)c1c(N)sc2c1C(C(=O)OCC)CCC2` (stereo not drawn), the TGI [1] was greater than 100 µM, the TGI [8] was greater than 100 µM and the TGI [4] was greater than 100 µM. The TGI [9] was greater than 100 µM, the TGI [10] was greater than 100 µM and the TGI [5] was greater than 100 µM. For the same compound, the TGI [6] was greater than 100 µM and the TGI [7] was greater than 100 µM.
`Cn1ccc2c(c1=O)C(=O)OC2(C)C` showed a TGI [1] greater than 100 µM, a TGI [8] greater than 100 µM and a TGI [2] greater than 100 µM. The TGI [3] was greater than 100 µM, the TGI [4] was greater than 100 µM and the TGI [10] was greater than 100 µM. The TGI [6] was greater than 100 µM and the TGI [7] was greater than 100 µM.
With `CCN1CCCn2c(=O)[nH]c3cc(Br)cc1c32` the TGI [1] was greater than 100 µM, the TGI [8] was greater than 100 µM and the TGI [2] was greater than 100 µM. For the same compound, the TGI [3] was greater than 100 µM, the TGI [4] was greater than 100 µM and the TGI [10] was greater than 100 µM. It also gave a TGI [5] greater than 100 µM, a TGI [6] greater than 100 µM and a TGI [7] greater than 100 µM.
`Cc1nc2c(n1-c1ccccc1)C(=O)c1ccccc1C2=O` was tested, and the TGI [2] was greater than 100 µM, the TGI [4] was 45.1 µM and the TGI [10] was greater than 100 µM. For the same compound, the TGI [5] was greater than 100 µM, the TGI [6] was greater than 100 µM and the TGI [7] was greater than 100 µM.
Compound `C=CCOC1(CC=C)C(=O)OC2C(O)COC21O` (stereo not drawn) has a TGI [1] greater than 100 µM, a TGI [8] greater than 100 µM and a TGI [2] greater than 100 µM. The TGI [3] was greater than 100 µM, the TGI [4] was greater than 100 µM and the TGI [10] was greater than 100 µM. It also gave a TGI [5] greater than 100 µM, a TGI [6] greater than 100 µM and a TGI [7] greater than 100 µM.
`COc1cccc(NC(=O)CC(=O)N2N=C(C)C(N=Nc3ccc(C(=O)O)cc3)C2=O)c1` (stereo not drawn) was tested, and the TGI [1] was greater than 100 µM, the TGI [8] was greater than 100 µM and the TGI [2] was greater than 100 µM. The TGI [3] was greater than 100 µM, the TGI [4] was greater than 100 µM and the TGI [10] was greater than 100 µM. The TGI [5] was greater than 100 µM and the TGI [6] was greater than 100 µM.
`CC1(C)C=[N+]([O-])C(C)(C)N1O` gave a TGI [1] greater than 10 µM, a TGI [8] greater than 10 µM and a TGI [2] greater than 10 µM. The TGI [3] was greater than 10 µM, the TGI [4] was greater than 10 µM and the TGI [9] was greater than 10 µM. For the same compound, the TGI [10] was greater than 10 µM, the TGI [5] was greater than 10 µM and the TGI [7] was greater than 10 µM.
With `O=c1c2cc(Br)ccc2ncn1COCc1ccccc1` the TGI [1] was greater than 100 µM, the TGI [3] was greater than 1 µM and the TGI [9] was greater than 100 µM. It also gave a TGI [10] greater than 100 µM, a TGI [5] greater than 100 µM and a TGI [6] greater than 100 µM. The TGI [7] was greater than 100 µM.
Work on `O=C(NCCCCCCO)c1cccc2cc3ccccc3nc12` yielded a TGI [1] of 25.3 µM, a TGI [8] of 31.9 µM and a TGI [2] of 36.1 µM. For the same compound, the TGI [3] was greater than 100 µM, the TGI [4] was 74.8 µM and the TGI [9] was greater than 100 µM. The TGI [5] was 30.1 µM, the TGI [6] was 42.5 µM and the TGI [7] was 58.5 µM.
`CS(=O)(=O)[O-].CS(=O)(=O)[O-].NC1CCCCC1N.[Pt+4]` (stereo not drawn) showed a GI50 [1] of 35.9 µM, a TGI [1] greater than 100 µM and a GI50 [2] of 41.8 µM. For the same compound, the TGI [2] was greater than 100 µM, the GI50 [3] was greater than 55.2 µM and the TGI [3] was greater than 100 µM. It also gave a GI50 [4] of 33.5 µM, a TGI [4] greater than 93.5 µM and a GI50 [9] greater than 100 µM. It also gave a TGI [9] greater than 100 µM, a GI50 [5] greater than 100 µM and a TGI [5] greater than 100 µM. For the same compound, the GI50 [6] was 71.6 µM, the TGI [6] was greater than 100 µM and the GI50 [7] was 29 µM. The TGI [7] was greater than 100 µM.
In the case of `COc1ccccc1NC(=S)N/N=C/c1ccccn1`, the TGI [1] is reported as greater than 16 µM, the TGI [8] is reported as greater than 46.4 µM and the TGI [2] is reported as 16.8 µM. For the same compound, the TGI [3] was 0.237 µM, the TGI [4] was 0.693 µM and the TGI [9] was 29 µM. It also gave a TGI [10] of 7.69 µM, a TGI [5] of 29.5 µM and a TGI [6] greater than 46.4 µM.
For `O=P(O)(O)C=C=C1CCCCC1`, the TGI [1] was greater than 100 µM, the TGI [8] was greater than 100 µM and the TGI [2] was greater than 100 µM. It also gave a TGI [3] greater than 100 µM, a TGI [4] greater than 100 µM and a TGI [9] greater than 100 µM. It also gave a TGI [10] greater than 100 µM, a TGI [5] greater than 100 µM and a TGI [6] greater than 100 µM.
`C=C(C)[C@@H]1CC[C@]2(CO)CC[C@]3(C)[C@H](CC[C@@H]4[C@@](C)(CCCN)[C@H](C(=C)C)CC[C@]43C)[C@@H]12` gave a GI50 [1] of 1.63 µM, a TGI [1] of 3.34 µM and a GI50 [8] of 1.55 µM. It also gave a TGI [8] of 3.09 µM, a GI50 [2] of 1.79 µM and a TGI [2] of 3.21 µM. For the same compound, the GI50 [4] was 1.78 µM, the TGI [4] was 3.61 µM and the GI50 [9] was 1.38 µM. It also gave a TGI [9] of 2.82 µM, a GI50 [6] of 1.75 µM and a TGI [6] of 3.14 µM.
With `O=c1nc2ccc3sc4ccccc4c(=O)c3n2c(=O)[nH]1` the TGI [1] was greater than 100 µM, the TGI [8] was greater than 100 µM and the TGI [2] was greater than 100 µM. The TGI [3] was greater than 100 µM, the TGI [4] was greater than 100 µM and the TGI [6] was greater than 100 µM. It also gave a TGI [7] greater than 100 µM.
`COc1cc2c(c(OC)c1)C(=O)O[C@H](C)CCCC/C=C/C2` was tested, and the TGI [1] was 31.8 µM, the TGI [2] was 26.4 µM and the TGI [3] was greater than 77.2 µM. It also gave a TGI [4] of 4.45 µM, a TGI [9] of 25.7 µM and a TGI [10] greater than 32.2 µM. It also gave a TGI [5] of 31.1 µM, a TGI [6] greater than 34.1 µM and a TGI [7] greater than 31.9 µM.
Compound `CCN(CC)/[N+]([O-])=N/O` has a TGI [2] greater than 100 µM, a TGI [4] greater than 100 µM and a TGI [9] greater than 100 µM. It also gave a TGI [10] greater than 100 µM, a TGI [5] greater than 100 µM and a TGI [6] greater than 100 µM. For the same compound, the TGI [7] was greater than 100 µM.
`C=CCCCCn1c2ccccc2c2c(C)c3cnccc3c(C)c21` was tested, and the TGI [1] was 18 µM, the TGI [2] was 27.8 µM and the TGI [3] was 33.7 µM. For the same compound, the TGI [4] was 4.92 µM, the TGI [9] was 19.8 µM and the TGI [5] was 47.3 µM. It also gave a TGI [6] of 40.8 µM and a TGI [7] of 9.47 µM.
`COc1ccc2c(c1)C(=O)C1CCC(=O)N1C2c1ccc2c(c1)OCO2` (stereo not drawn) was tested, and the TGI [1] was 25.7 µM, the TGI [8] was 29.5 µM and the TGI [2] was 71.8 µM. It also gave a TGI [3] greater than 100 µM, a TGI [4] of 42.4 µM and a TGI [10] of 29 µM. It also gave a TGI [5] of 41.6 µM, a TGI [6] of 24.4 µM and a TGI [7] of 11.2 µM.
`COc1cccc(C23CCCC(C2)N(C)CC3OC(=O)c2ccccc2)c1OC` (stereo not drawn) gave a TGI [1] of 29 µM, a TGI [8] of 81.8 µM and a TGI [2] greater than 100 µM. It also gave a TGI [3] of 67.1 µM, a TGI [4] of 28.3 µM and a TGI [10] of 29.6 µM. It also gave a TGI [5] greater than 100 µM, a TGI [6] of 87.8 µM and a TGI [7] of 60.3 µM.
`COc1cc2oc(=O)cc(C)c2c(OC)c1OC(C)=O` was tested, and the TGI [1] was greater than 100 µM, the TGI [8] was greater than 100 µM and the TGI [3] was greater than 100 µM. For the same compound, the TGI [10] was greater than 100 µM, the TGI [5] was greater than 100 µM and the TGI [6] was greater than 100 µM. It also gave a TGI [7] greater than 100 µM.

Source: PubChem BioAssay (NCI)
